In patent US11766443B2, “Cyclopentathiophene carboxamide derivatives as platelet activating factor receptor antagonists” (Boehringer Ingelheim International GmbH, priority 2021, dated 2023):
In brackets after ≈: the same amount, converted by molar mass.

How the values were obtained:
[1] = aqueous solubility in buffer (from DMSO stock, 24 h shaking, LC-UV); conditions: pH 2.2, aqueous buffer, kinetic from dmso stock
[2] = target: T1, human PAFR (Homo sapiens, UniProt P25105); assay: cellular HTRF IP1 endpoint assay: inhibition of PAFR activation by PAF C-16 ligand; format: cell-based; conditions: HEK293 cells overexpressing human PAFR; PAF ligand 11 nM
T1 construct: expressed in transfected cells; host or cells: HEK293
Protocol: The ability of compounds of formula (I.0) to inhibit the activation of the PAF receptor (PAFR) by the PAF C-16 ligand (PAF) is determined using the following cellular HTRF IP1 assay (IP1 Gq assay kit from Cisbio, Cat. no.: 62IP1APEJ) in assay buffer (1×HBSS, 20 mM Hepes, pH 7.4, 50 mM LiCl and containing 0.1% (w/v) BSA):
HEK293 cells overexpressing human PAFR (produced in-house) are seeded into a Poly-D-Lysine coated 384 well white cell culture microtiter assay plate with lid (15.000 cells per well). Subsequently, the plates are incubated over night at 37° C./5% CO2. On the next day, cells are being washed and subsequently, various concentrations of the test compounds (compounds in 100% DMSO; final concentration of DMSO in wells is 1%) are added to the assay plate via Echo 555 acoustic liquid handler. Plates are then incubated with lid for 90 minutes at 37° C./5% CO2. Thereafter, PAF ligand (Cayman Chemical Company, Item no.: 60900) is added at a final concentration of 11 nM. Plates are then incubated with lid for 60 minutes at 37° C./5% CO2. Then, 5 μl per well of Anti-IP1-Anti body-Cryptate solution and 5 μL per well of IP1-d2 solution are added to all wells of the plate and the plate is incubated for another 60 minutes light protected at room temperature. The emissions at 620 nm and 665 nm (Excitation wavelength: 320 nm) are measured using an Envision Reader (PerkinElmer).

T1 sequence (P25105 whole entry): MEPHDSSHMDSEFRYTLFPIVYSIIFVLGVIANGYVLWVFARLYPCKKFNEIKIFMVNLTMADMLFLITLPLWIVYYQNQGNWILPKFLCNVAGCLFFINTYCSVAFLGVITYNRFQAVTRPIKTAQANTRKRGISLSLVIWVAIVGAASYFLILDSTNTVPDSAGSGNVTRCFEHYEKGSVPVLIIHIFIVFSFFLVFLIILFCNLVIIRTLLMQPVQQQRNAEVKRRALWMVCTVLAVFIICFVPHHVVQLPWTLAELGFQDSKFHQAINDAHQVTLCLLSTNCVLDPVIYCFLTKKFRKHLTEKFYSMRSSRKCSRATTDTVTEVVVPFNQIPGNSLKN

Row | Structure (SMILES) | solubility at 24 h [1] | IC50 [2]
1 | Cc1nnc2n1-c1sc3c(c1C(c1ccccc1Br)NC2)CC(C(=O)N1CCOCC1)C3 (racemic) [Example 57, 9-(2-Bromophenyl)-3-methyl-13-(morpholine-4-carbonyl)-16-thia-2,4,5,8-tetraazatetracyclo[8.6.0.0^2,6.0^11,15]hexadeca-1(10),3,5,11(15)-tetraene] | > 128 µg/mL | 161 nM
2 | Cc1nnc2n1-c1sc3c(c1[C@H](c1ccccc1Cl)NC2)C[C@H](C(=O)NC1CCC(F)(F)CC1)C3 [Example 23] | > 114 µg/mL | 1.3 nM
3 | CCc1ccccc1C1NCc2nnc(C)n2-c2sc3c(c21)CC(C(=O)N1CCOCC1)C3 (racemic) [Example 53, 9-(2-Ethylphenyl)-3-methyl-13-(morpholine-4-carbonyl)-16-thia-2,4,5,8-tetraazatetracyclo[8.6.0.0^2,6.0^11,15]hexadeca-1(10),3,5,11(15)-tetraene] | 116 µg/mL (≈ 250 µM) | 297 nM
4 | CCCN(CCC)C(=O)[C@@H]1Cc2sc3c(c2C1)[C@H](c1ccccc1Cl)NCc1nnc(C)n1-3 [Example 73, (9R,13S)-9-(2-chlorophenyl)-3-methyl-N,N-dipropyl-16-thia-2,4,5,8-tetraazatetracyclo[8.6.0.0^2,6.0^11,15]hexadeca-1(10),3,5,11(15)-tetraene-13-carboxamide] | > 110 µg/mL | 0.7 nM
5 | Cc1nnc2n1-c1sc3c(c1[C@H](c1ccccc1Cl)NC2)C[C@H](C(=O)N[C@@H](C)CF)C3 [Example 20] | > 128 µg/mL | 4.5 nM
6 | Cc1nnc2n1-c1sc3c(c1[C@H](c1ccccc1Cl)NC2)C[C@H](C(=O)N1CCO[C@@H](C)C1)C3 [Example 4, (9R,13S)-9-(2-Chlorophenyl)-3-methyl-13-[(2S)-2-methylmorpholine-4-carbonyl]-16-thia-2,4,5,8-tetraazatetracyclo-[8.6.0.0^2,6.0^11,15]hexadeca-1(10)3,5,11(15)-tetraene] | > 113 µg/mL | 6.8 nM
7 | Cc1nnc2n1-c1sc3c(c1[C@H](c1ccccc1Cl)NC2)C[C@H](C(=O)NCc1ccc(OC(F)F)nc1)C3 [Example 12] | > 129 µg/mL | 1.9 nM
8 | CCc1nnc2n1-c1sc3c(c1C(c1ccccc1Cl)NC2)CC(C(=O)N1CCOCC1)C3 (centres unmarked) [Example 67] | > 121 µg/mL | 73 nM
9 | Cc1nnc2n1-c1sc3c(c1[C@@H](c1ccccc1Cl)NC2)C[C@H](C(=O)N1CCOCC1)C3 [Example 3, (9S,13S)-9-(2-chlorophenyl)-3-methyl-13-(morpholine-4-carbonyl)-16-thia-2,4,5,8-tetraazatetracyclo[8.6.0.0^2,6.0^11,15]-hexadeca-1(10),3,5,11(15)-tetraene] | > 118 µg/mL | 423 nM
10 | Cc1nnc2n1-c1sc3c(c1[C@H](c1ccccc1Cl)NC2)C[C@H](C(=O)NCc1cscn1)C3 [Example 39] | > 110 µg/mL | 60 nM
11 | Cc1noc(C)c1NC(=O)[C@@H]1Cc2sc3c(c2C1)[C@H](c1ccccc1Cl)NCc1nnc(C)n1-3 [Example 25] | > 136 µg/mL | 4.3 nM

Results, then the molecule that gave them:

Row | solubility at 24 h [1] | IC50 [2] | Structure (SMILES)
12 | > 119 µg/mL | 11 nM | COc1ccc(CNC(=O)[C@@H]2Cc3sc4c(c3C2)[C@H](c2ccccc2Cl)NCc2nnc(C)n2-4)cn1 [Example 41]
13 | 101 µg/mL (≈ 192 µM) | 1.9 nM | Cc1nnc2n1-c1sc3c(c1[C@H](c1ccccc1Cl)NC2)C[C@H](C(=O)NCc1ccc(Cl)cn1)C3 [Example 49]
14 | > 132 µg/mL | 1.1 nM | Cc1nnc2n1-c1sc3c(c1[C@H](c1ccccc1Cl)NC2)C[C@H](C(=O)NCc1ccccc1)C3 [Example 31]
15 | 112 µg/mL (≈ 200 µM) | 6.3 nM | Cc1nnc2n1-c1sc3c(c1[C@H](c1ccccc1Cl)NC2)C[C@H](C(=O)NCc1cnc(C(F)(F)F)nc1)C3 [Example 46]
16 | > 112 µg/mL | 41 nM | Cc1nnc2n1-c1sc3c(c1[C@H](c1ccccc1Cl)NC2)C[C@H](C(=O)NCc1ccnnc1)C3 [Example 44]
